Target: T1, Recombinant human Farnesyl Pyrophosphate synthase (FPPS) (Homo sapiens, UniProt P14324)
T1 construct: made in house
T1 sequence (P14324 72-419 limits assumed): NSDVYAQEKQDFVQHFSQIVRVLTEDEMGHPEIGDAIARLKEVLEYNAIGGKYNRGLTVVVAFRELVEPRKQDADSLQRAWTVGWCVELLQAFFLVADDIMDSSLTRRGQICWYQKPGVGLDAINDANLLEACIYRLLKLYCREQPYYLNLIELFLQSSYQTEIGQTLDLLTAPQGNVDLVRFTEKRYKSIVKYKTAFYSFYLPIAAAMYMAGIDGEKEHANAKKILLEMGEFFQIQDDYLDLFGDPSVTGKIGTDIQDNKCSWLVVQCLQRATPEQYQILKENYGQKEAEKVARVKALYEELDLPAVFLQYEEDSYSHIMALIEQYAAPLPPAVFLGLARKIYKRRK
Assay: FPPS SPA (scintillation proximity FlashPlate assay of FPPS inhibition)
Assay type: biochemical
Settings: Example 13 table; FPPS SPA; read-out: IC50

| Structure (SMILES) | IC50 |
| --- | --- |
| O=C(O)c1ccc(-c2ccc(F)c(F)c2)cc1OCc1cccc2ccccc12 [13 ai)] | 320 nM |
| O=C(O)c1ccc(-c2cccc(OC(F)(F)F)c2)cc1OCc1cccc2ccccc12 [13 ae)] | > 10000 nM |
| O=C(O)c1ccc(-c2ccc3c(c2)OCO3)cc1OCc1cccc2ccccc12 [13 ba)] | 240 nM |
| O=C(O)c1ccc(-c2ccc3[nH]ccc3c2)cc1OCc1cccc2ccccc12 [13 am)] | 340 nM |
| O=C(O)c1ccc(-c2cc3ccccc3o2)cc1OCc1cccc2ccccc12 [13 al)] | 1120 nM |
| O=C(O)c1ccc(-c2csc3ccccc23)cc1OCc1cccc2ccccc12 [13 an)] | 1350 nM |
| O=C(O)c1ccc(-c2ccc(CO)cc2)cc1OCc1cccc2ccccc12 [13 as)] | 380 nM |
| O=C(O)c1ccc(-c2ccc3c(c2)OCCO3)cc1OCc1cccc2ccccc12 [13 ao)] | 420 nM |
| Cc1cccc(C)c1-c1ccc(C(=O)O)c(OCc2cccc3ccccc23)c1 [13 ag)] | 1100 nM |
| CC(=O)Nc1ccc(-c2ccc(C(=O)O)c(OCc3cccc4ccccc34)c2)cc1 [13 da)] | 130 nM |
| Cc1cccc(-c2ccc(C(=O)O)c(OCc3cccc4ccccc34)c2)c1 [13 ax)] | 400 nM |
| O=C(O)c1ccc(-c2ccc(Cl)c(Cl)c2)cc1OCc1cccc2ccccc12 [13 ac)] | 1460 nM |
| O=C(O)c1ccc(-c2ccccc2F)cc1OCc1cccc2ccccc12 [13 ak)] | 230 nM |
| O=C(O)c1ccc(-c2ccoc2)cc1OCc1cccc2ccccc12 [13 aj)] | 550 nM |
| Cc1ccccc1-c1ccc(C(=O)O)c(OCc2cccc3ccccc23)c1 [13 ar)] | 530 nM |
| COc1ccc2cc(-c3ccc(C(=O)O)c(OCc4cccc5ccccc45)c3)ccc2c1 [13 ay)] | 380 nM |
| O=C(O)c1ccc(-c2cccc3[nH]ccc23)cc1OCc1cccc2ccccc12 [13 ah)] | 260 nM |
| Cc1cc(Cl)ccc1-c1ccc(C(=O)O)c(OCc2cccc3ccccc23)c1 [13 aw)] | 440 nM |
| COc1ccccc1-c1ccc(C(=O)O)c(OCc2cccc3ccccc23)c1 [13 ap)] | 1930 nM |
| O=C(O)c1ccc(-c2cccc(CO)c2)cc1OCc1cccc2ccccc12 [13 ad)] | 500 nM |
| O=C(O)c1ccc(-c2cccc(O)c2)cc1OCc1cccc2ccccc12 [13 au)] | 380 nM |
| COc1ccc(-c2ccc(C(=O)O)c(OCc3cccc4ccccc34)c2)cc1OC [13 ab)] | 260 nM |
| O=C(O)c1ccc(-c2cccc(F)c2)cc1OCc1cccc2ccccc12 [13 aq)] | 1140 nM |
| COc1cccc(-c2ccc(C(=O)O)c(OCc3cccc4ccccc34)c2)c1 [13 af)] | 1550 nM |
| Cn1ccc2cc(-c3ccc(C(=O)O)c(OCc4cccc5ccccc45)c3)ccc21 [13 ca)] | 270 nM |

Same assay, conditions: Example 15 table; FPPS SPA; read-out: IC50

| Structure (SMILES) | IC50 |
| --- | --- |
| CC(C)(C)CNc1ccc(C(=O)O)c(OCc2cccc3ccccc23)c1 [15 ad)] | 470 nM |
| COCCNc1ccc(C(=O)O)c(OCc2cccc3ccccc23)c1 [15 ar)] | 8100 nM |
| COCCN(C)c1ccc(C(=O)O)c(OCc2cccc3ccccc23)c1 [15 ae)] | 1390 nM |
| CC(Nc1ccc(C(=O)O)c(OCc2cccc3ccccc23)c1)C(C)(C)C (centres unmarked) [15 aq)] | 650 nM |
| CCCNc1ccc(C(=O)O)c(OCc2cccc3ccccc23)c1 [15 al)] | 370 nM |
| CN(CCO)c1ccc(C(=O)O)c(OCc2cccc3ccccc23)c1 [15 af)] | 720 nM |
| CN1CCC(Nc2ccc(C(=O)O)c(OCc3cccc4ccccc34)c2)CC1 [15 aw)] | 4750 nM |
| CCN(CC)CCN(C)c1ccc(C(=O)O)c(OCc2cccc3ccccc23)c1 [15 az)] | 26600 nM |
| CN1CCN(c2ccc(C(=O)O)c(OCc3cccc4ccccc34)c2)CC1 [15 ba)] | 38600 nM |
| O=C(O)c1ccc(NC2CCCCCC2)cc1OCc1cccc2ccccc12 [15 aj)] | 1790 nM |
| CN1CCCN(c2ccc(C(=O)O)c(OCc3cccc4ccccc34)c2)CC1 [15 at)] | 6450 nM |
| C[C@H](Nc1ccc(C(=O)O)c(OCc2cccc3ccccc23)c1)C1CCCCC1 [15 ai)] | 3520 nM |
| CC(=O)N1CCN(c2ccc(C(=O)O)c(OCc3cccc4ccccc34)c2)CC1 [15 as)] | 6500 nM |
| O=C(O)c1ccc(N2CCOCC2)cc1OCc1cccc2ccccc12 [15 au)] | 3180 nM |
| CCNc1ccc(C(=O)O)c(OCc2cccc3ccccc23)c1 [15 ao)] | 730 nM |
| CCCN(CC1CC1)c1ccc(C(=O)O)c(OCc2cccc3ccccc23)c1 [15 ah)] | 1310 nM |
| O=C(O)c1ccc(NCC2CCCCC2)cc1OCc1cccc2ccccc12 [15 ag)] | 2430 nM |
| CC1CCC(Nc2ccc(C(=O)O)c(OCc3cccc4ccccc34)c2)CC1 (centres unmarked) [15 ak)] | 1240 nM |
| O=C(O)c1ccc(NCCCO)cc1OCc1cccc2ccccc12 [15 ab)] | 2310 nM |
| O=C(O)c1ccc(N[C@H]2CC[C@H](O)CC2)cc1OCc1cccc2ccccc12 [15 am)] | 190 nM |
| O=C(O)c1ccc(N2CCCCCC2)cc1OCc1cccc2ccccc12 [15 ac)] | 530 nM |
| CN1CCCC1CCNc1ccc(C(=O)O)c(OCc2cccc3ccccc23)c1 (centres unmarked) [15 ap)] | 17500 nM |
| O=C(O)c1ccc(NC2CCCC2)cc1OCc1cccc2ccccc12 [15 aa)] | 630 nM |

Same assay, conditions: Example 16 table; FPPS SPA; read-out: IC50

| Structure (SMILES) | IC50 |
| --- | --- |
| O=C(O)c1ccc(NCc2ccccc2)cc1OCc1cccc2ccccc12 [16 b)] | 210 nM |
| O=C(O)c1ccc(NCC2CC2)cc1OCc1cccc2ccccc12 [16 c)] | 1200 nM |

Same assay, conditions: IC50, Example 13 table; FPPS SPA

| Structure (SMILES) | IC50 |
| --- | --- |
| O=C(O)c1ccc(-c2ccc(Cl)cc2)cc1OCc1cccc2ccccc12 [13 av)] | 690 nM |
| O=C(O)c1ccc(-c2ccc(O)cc2)cc1OCc1cccc2ccccc12 [13 az)] | 380 nM |
| O=C(O)c1ccc(-c2ccc(F)cc2)cc1OCc1cccc2ccccc12 [13 at)] | 300 nM |

Same assay, conditions: IC50, Example 15 table; FPPS SPA

| Structure (SMILES) | IC50 |
| --- | --- |
| CN(C)c1ccc(C(=O)O)c(OCc2cccc3ccccc23)c1 [15 an)] | 190 nM |

Same assay, conditions: IC50 on FPPS, test system termed "FPS SPA" (Example 18)

| Structure (SMILES) | IC50 |
| --- | --- |
| O=C(O)c1ccccc1OCc1cccc2ccccc12 [Example 17 r)] | 12500 nM |

Same assay, conditions: Inhibition according to the FPPS SPA (Example 21); read-out: IC50

| Structure (SMILES) | IC50 |
| --- | --- |
| O=C(O)c1ccc(OC(F)(F)F)cc1OCc1cccc2ccccc12 [17 l)] | 2910 nM |
| COc1ccc(OCc2cccc3ccccc23)c(C(=O)O)c1 [17 o)] | 880 nM |
| CCN(CC)c1ccc(C(=O)O)c(OCc2c(Cl)ccc3ccccc23)c1 [17 a)] | 770 nM |
| Cc1ccc(C)n1-c1ccc(C(=O)O)c(OCc2cccc3ccccc23)c1 [17 g)] | 240 nM |
| O=C(O)c1cc(Cl)ccc1OCc1cccc2ccccc12 [17 j)] | 2960 nM |
| O=C(O)c1ccc(OCc2ccccc2)cc1OCc1cccc2ccccc12 [17 n)] | 730 nM |
| CCN(CC)c1ccc(C(=O)O)c(OCc2cccc3ccc(Cl)cc23)c1 [17 f)] | 1820 nM |
| Cc1cc(O)c(C(=O)O)c(OCc2cccc3ccccc23)c1 [17 p)] | 2500 nM |
| Cc1ccc2ccccc2c1COc1ccccc1C(=O)O [17 b)] | 340 nM |
| CC(C)CCOc1ccc(C(=O)O)c(OCc2cccc3ccccc23)c1 [17 m)] | 1900 nM |
| Cc1ccc(COc2ccccc2C(=O)O)c2ccccc12 [17 e)] | 1830 nM |
| O=C(O)c1ccccc1OCc1cccc2ccccc12 [17 r)] | 12800 nM |
| O=C(O)c1ccc(Br)cc1OCc1cccc2ccccc12 [17 q)] | 6750 nM |
| CCN(CC)c1ccc(C(=O)O)c(OCc2c(C)ccc3ccccc23)c1 [17 d)] | 660 nM |
| COc1ccc(C(=O)O)c(OCc2cccc3ccccc23)c1 [17 s)] | 1340 nM |
| O=C(O)c1ccc(C(F)(F)F)cc1OCc1cccc2ccccc12 [17 k)] | 810 nM |
| O=C(O)c1cc2ccccc2cc1OCc1cccc2ccccc12 [17 h)] | 840 nM |
| Cc1ccc2ccccc2c1COc1cc(-n2c(C)ccc2C)ccc1C(=O)O [17 c)] | 480 nM |
| CCN(CC)c1ccc(C(=O)O)c(OCc2cccc3ccccc23)c1 [17 i)] | 400 nM |
